Assay results reported in patent publication US20260174770A1, “COMBINATION THERAPY FOR TREATING CANCER” (SCORPION THERAPEUTICS, INC., priority 2022, published 2026).
“Also recorded” adds a separate entry of the source.

Key:
[1] = system: pAKT (S473), CAL148 cells (PI3Kα H1047R + D350N); experiment: pAKT (S473) HTRF in CAL148 cells; type: cell-based; details: Homo sapiens, CAL-148, read-out: Alpelisib pAKT HTRF GMean GI50 (95% CI), 1 hour
Procedure: (§2) A 384-well phospho-AKT (S473) HTRF (PerkinElmer #64AKSPEH) assay was used for target engagement. Each well was seeded with cell numbers indicated in Supplementary Table S3 in a volume of 12.5 uL in phenol red-free media and then treated for 1 hour at 37° C., before reading on a PHERAstar plate reader.

[2] = system: primary human subcutaneous adipocytes (WT PI3Kα); experiment: Human adipocyte 3H-2-deoxyglucose uptake; type: cell-based
Procedure: Primary human subcutaneous adipocytes were treated with test compound or vehicle for 1 hour followed by addition of 10 nM insulin and ^3H-2-deoxyglucose (Zen Bio Durham, NC USA, assay #CA-25 Lot #SL0071). Cytochalasin B treatment controlled for non-specific glucose uptake. Corrected counts per minute was determined using a scintillation counter.

[3] = system: pAKT (S473), DETROIT562 cells (PI3Kα H1047R); experiment: pAKT (S473) HTRF in DETROIT562 cells; type: cell-based; details: Homo sapiens, Detroit 562, read-out: Alpelisib pAKT HTRF GMean GI50 (95% CI), 1 hour
Procedure: as §2

[4] = Juric et al. 2018; cited from earlier work
[5] = system: panel of human tumor cell lines harboring PI3Kα kinase-domain mutations and WT SKBR3; experiment: pAKT (S473) HTRF across the human tumor cell line panel; details: SK-BR-3, read-out: pAKT IC50 values across the panel of cell lines
Procedure: as §2

[6] = system: Cal33 (H1047R PI3Kα) xenograft tumors; details: mouse, in vivo
Procedure: (§3) All animal handling and treatment procedures were performed according to the approved Institutional Animal Care and Use Committee guidelines following the Association for Assessment and Accreditation of Laboratory Animal Care guidance. Cell line xenografts were performed in BALB/c nude mice except for the T47D model that used NSG mice implanted with 17-beta estradiol tablets (0.5 mg, 90-day release). PK/PD studies with xenograft tumors were established using standard protocols. PDX models were performed by XenoSTART (San Antonio, TX).

[7] = system: BT20 cells; experiment: Cell viability (CellTiterGlo) in BT20 cells; type: cell-based; details: Homo sapiens, BT-20, read-out: Compound 1 CTGlo GMean IC50 (95% CI); BT20 (H1047R + P539R), 72 hours
Procedure: (§1) Cell viability was measured using CellTiterGlo (Promega #G9243). Indicated cell lines were seeded according to Supplementary Table S3 in 50 μL of media in 384 well plates, with 72 hours of treatment at 37° C. with 5% CO2.

[8] = system: PIK3CA H1047R, ER+ PDX tumor
Procedure: as §3

[9] = system: DETROIT562 cells; experiment: Cell viability (CellTiterGlo) in DETROIT562 cells; type: cell-based; details: Homo sapiens, Detroit 562, read-out: Compound 1 CTGlo GMean IC50 (95% CI); DETROIT562 (H1047R), 72 hours
Procedure: as §1

[10] = system: CAL148 cells; experiment: Cell viability (CellTiterGlo) in CAL148 cells; type: cell-based; details: Homo sapiens, CAL-148, read-out: Compound 1 CTGlo GMean IC50 (95% CI); CAL148 (H1047R + D350N), 72 hours
Procedure: as §1

[11] = system: AurB kinase, phospho-H3 (Ser10); experiment: Cellular AurB inhibition, phospho-H3 (Ser10); type: cell-based; details: 1-hour post treatment; Compound 1 up to 10 μM
[12] = system: HCC1954 cells; experiment: Cell viability (CellTiterGlo) in HCC1954 cells; type: cell-based; details: Homo sapiens, read-out: Compound 1 CTGlo GMean IC50 (95% CI); HCC1954 (H1047R), 72 hours
Procedure: as §1

[13] = molecular target: T1, AurB kinase (Homo sapiens, UniProt Q96GD4); experiment: AurB kinase inhibition (kinase profiling); type: biochemical
T1 construct: purchased Eurofins Cerep (KinaseProfiler, IC50Profiler)
T1 sequence (Q96GD4 whole entry): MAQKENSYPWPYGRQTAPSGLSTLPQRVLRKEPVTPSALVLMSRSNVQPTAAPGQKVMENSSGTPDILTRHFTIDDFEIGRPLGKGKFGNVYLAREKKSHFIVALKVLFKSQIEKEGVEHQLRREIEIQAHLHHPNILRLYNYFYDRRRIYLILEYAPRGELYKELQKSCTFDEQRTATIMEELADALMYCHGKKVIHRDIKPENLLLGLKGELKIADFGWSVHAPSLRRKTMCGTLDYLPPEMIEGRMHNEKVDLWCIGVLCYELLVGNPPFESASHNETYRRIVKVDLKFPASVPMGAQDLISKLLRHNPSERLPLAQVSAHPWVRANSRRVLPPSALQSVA

Structure (SMILES)	GI50 [1] [µM]	Emax ([2]; Adipocyte, 10 nM insulin, primary human adipocytes, read-out: maximum effect (Emax) for glucose uptake) [%]	inhibition of glucose uptake ([2]; at 10 μM)	GI50 [3] [µM]	exposure of the maximum approved human dose [4]	IC50 [5] [µM]	serum insulin [6]	Δ Insulin, one-hour post dose [6]	IC50 [7] [µM]	tumor growth / tumor volume ([8]; Compound 1 100 mg/kg PO QD, fulvestrant QW, 100 mg/kg)	T/C ([8]; Compound 1 100 mg/kg QD, fulvestrant 5 mg/kg QW) [%]	IC50 [9] [µM]	IC50 [10] [µM]	inhibition of AurB / phospho-H3 (Ser10) in cells [11]	IC50 [12] [µM]	IC50 ([13]; Example 8) [µM]	inhibition at 10 µM ([13]; at 10 μM) [%]	IC50 ([13]; legend of FIG. 5G) [µM]
Cc1nc(NC(=O)N2CCC[C@H]2C(N)=O)sc1-c1ccnc(C(C)(C)C(F)(F)F)c1 [Alpelisib, alpelisib, reference compound]	0.268	88	nearly complete inhibition	0.125	~33,000 ng*hr/mL	0.028 to 0.268	raised serum insulin	+1.07^NS ng/mL	–	–	–	–	–	–	–	–	–	–
Cc1c([C@@H](NC(=O)Nc2cnc(N)nc2)C(F)(F)F)oc2c(F)cc(F)cc12 (single isomer, unassigned) [Compound 1]	–	–	–	–	–	–	–	–	0.654	decreases tumor volume; also recorded: Strong tumor growth inhibition and stasis	5	0.246	0.705	no significant inhibition of AurB; also recorded: limited AurB inhibition in cells	0.457	1.6	> 50	~1.66
